Measurements from ChEMBL document CHEMBL1143348, “Design, synthesis, and cytoprotective effect of 2-aminothiazole analogues as potent poly(ADP-ribose) polymerase-1 inhibitors” (J Med Chem, 2009).

Assays:
PC-12 [1] = assay: Cytoprotective activity against H2O2-induced cell death in rat PC12 cells by MTT assay after 6 hrs; assay type: functional, cell-based; details: PC-12, 6 h
PC-12 [2] = assay: Cytoprotective activity against oxygen-glucose deprivation-induced cell death in rat PC12 cells by MTT assay; assay type: functional, cell-based
PC-12 [3] = assay: Cytoprotective activity in rat PC12 cells assessed as reduction in oxygen-glucose deprivation-induced LDH release at 3 uM; assay type: functional; parameters: scale not given: the % may be the effect or the level left
PC-12 [4] = assay: Cytoprotective activity against oxygen-glucose deprivation-induced apoptosis in rat PC12 assessed as live cells at 3 uM by flow cytometry using FITC-conjugated annexin V and propidium iodide staining relative to control; assay type: functional
PC-12 [5] = assay: Cytoprotective activity against oxygen-glucose deprivation-induced apoptosis in rat PC12 assessed as early apoptotic cells at 3 uM by flow cytometry using FITC-conjugated annexin V and propidium iodide staining relative to control; assay type: functional
PC-12 [6] = assay: Cytoprotective activity against oxygen-glucose deprivation-induced apoptosis in rat PC12 assessed as late apoptotic cells at 3 uM by flow cytometry using FITC-conjugated annexin V and propidium iodide staining relative to control; assay type: functional
PC-12 [7] = assay: Cytoprotective activity against oxygen-glucose deprivation-induced apoptosis in rat PC12 assessed as damaged cells at 3 uM by flow cytometry using FITC-conjugated annexin V and propidium iodide staining relative to control; assay type: functional
PC-12 [8] = assay: Cytoprotective activity against oxygen-glucose deprivation-induced apoptosis in rat PC12 assessed as total apoptotic cells at 3 uM by flow cytometry using FITC-conjugated annexin V and propidium iodide staining relative to control; assay type: functional
[9] = target: Poly [ADP-ribose] polymerase 1 (Homo sapiens, UniProt P09874)
Chain of Poly [ADP-ribose] polymerase 1 (P09874 whole entry): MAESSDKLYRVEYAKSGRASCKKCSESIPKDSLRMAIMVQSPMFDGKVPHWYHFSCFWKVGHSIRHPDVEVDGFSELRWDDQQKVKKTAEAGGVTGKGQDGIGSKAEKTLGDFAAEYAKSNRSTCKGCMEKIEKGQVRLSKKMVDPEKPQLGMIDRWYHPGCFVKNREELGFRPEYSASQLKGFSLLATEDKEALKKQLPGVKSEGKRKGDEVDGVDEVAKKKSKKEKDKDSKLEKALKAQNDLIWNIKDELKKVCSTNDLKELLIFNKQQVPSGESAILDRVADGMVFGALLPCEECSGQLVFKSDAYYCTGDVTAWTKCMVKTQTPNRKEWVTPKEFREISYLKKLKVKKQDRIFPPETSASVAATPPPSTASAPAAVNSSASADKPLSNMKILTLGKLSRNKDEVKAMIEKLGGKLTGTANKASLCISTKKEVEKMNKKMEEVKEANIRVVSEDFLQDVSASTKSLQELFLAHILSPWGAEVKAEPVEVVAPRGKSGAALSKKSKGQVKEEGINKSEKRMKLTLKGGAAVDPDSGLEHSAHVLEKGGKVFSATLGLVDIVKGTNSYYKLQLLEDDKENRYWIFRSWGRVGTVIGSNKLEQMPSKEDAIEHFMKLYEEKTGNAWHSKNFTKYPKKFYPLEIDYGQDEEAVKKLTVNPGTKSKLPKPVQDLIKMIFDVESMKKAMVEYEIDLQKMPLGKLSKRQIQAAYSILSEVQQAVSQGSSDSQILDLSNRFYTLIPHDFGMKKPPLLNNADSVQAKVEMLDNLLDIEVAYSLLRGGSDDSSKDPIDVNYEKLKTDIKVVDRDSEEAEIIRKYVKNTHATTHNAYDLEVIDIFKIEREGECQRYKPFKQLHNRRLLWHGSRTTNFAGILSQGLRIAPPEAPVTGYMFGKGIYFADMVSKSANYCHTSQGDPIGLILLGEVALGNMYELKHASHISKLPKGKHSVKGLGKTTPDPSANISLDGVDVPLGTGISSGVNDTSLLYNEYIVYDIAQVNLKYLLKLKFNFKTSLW
Description: Inhibition of human recombinant PARP1

| SMILES | EC50 (PC-12 [1]) [nM] | EC50 (PC-12 [2]) [nM] | IC50 [9] [nM] | further results |
| --- | --- | --- | --- | --- |
| CCOC(=O)CCC(=O)Nc1nc(-c2ccccc2)cs1 | 537 | 143 | 240 | Activity (PC-12 [3]): 34.6%; Activity (PC-12 [4]): 80.6%; Activity (PC-12 [5]): 8.5%; Activity (PC-12 [6]): 5.9%; Activity (PC-12 [7]): 5%; Activity (PC-12 [8]): 70.7% |
| COc1cc(/C=C/C(=O)Nc2nc3c(s2)CCCC3)cc(OC)c1 | 2090 | 1040 | 9330 |  |
| O=c1[nH]c(CCCN2CC=C(c3ccccc3)CC2)nc2cccc(Cl)c12 |  |  | 682 |  |
| Nc1ncnc2c1ncn2[C@@H]1O[C@H](COCNC(=O)CCC(=O)Nc2cccc3c2CNC3=O)[C@@H](O)[C@H]1O |  |  | 100 |  |
| O=c1[nH]c(CCCN2CC=C(c3ccccc3)CC2)nc2c1CCC2 |  |  | 249 |  |
| O=C(/C=C/c1ccccc1)Nc1nc(-c2ccccc2)cs1 | 129 | 559 | 224 | Activity (PC-12 [3]): 33.1%; Activity (PC-12 [4]): 84%; Activity (PC-12 [5]): 8.4%; Activity (PC-12 [6]): 3.7%; Activity (PC-12 [7]): 3.9%; Activity (PC-12 [8]): 64.4% |
| O=C1NCCn2c(CN3CCCCC3)cc3cccc1c32 |  |  | 109 |  |
| Cc1sc(-c2ccccc2)nc1C(=O)Nc1cccc(Cc2n[nH]c(=O)c3ccccc23)c1 |  |  | 27 |  |
| O=c1[nH]c2ccc(CCCN3CC=C(c4ccccc4)CC3)cc2c2ccccc12 |  |  | 119 |  |
| CCOC(=O)CCC(=O)Nc1nc2c(s1)CCCC2 | > 3000 | 961 | 12400 |  |
| O=C(Nc1nc(-c2ccccc2)cs1)c1ccncc1 | 1550 | 191 | 753 | Activity (PC-12 [3]): 20.1%; Activity (PC-12 [4]): 73.8%; Activity (PC-12 [5]): 8.6%; Activity (PC-12 [6]): 11.6%; Activity (PC-12 [7]): 6%; Activity (PC-12 [8]): 45.1% |
| CCOc1ccc(-c2csc(/N=C/c3c[nH]c4ccccc34)n2)c(OCC)c1 | 324 | 361 | 240 | Activity (PC-12 [3]): 28.4% |
| O=C(CCn1c2c(c(=O)[nH]c1=O)CSCC2)NCC(=O)c1ccc(-c2ccnnc2)cc1 |  |  | 25 |  |
| CN(C)CCCOc1ccc(-c2nc3cccc4c3n2CCNC4=O)cc1 |  |  | 63 |  |
| COc1cc(/C=C/C(=O)Nc2nc(-c3ccccc3)cs2)cc(OC)c1 | 1120 | 527 | 4530 | Activity (PC-12 [3]): 24% |
| CC1CCc2nc(CCCN3CC=C(c4ccccc4)CC3)[nH]c(=O)c2C1 (configuration not stated) |  |  | 274 |  |
| CCOC(=O)c1ccc(CCc2nc3cccc4c3n2CCNC4=O)cc1 |  |  | 97 |  |
| O=c1[nH]c2ccc(CCN3CC=C(c4ccccc4)CC3)cc2c2ccccc12 |  |  | 46 |  |
